According to patent US20180183541A9, “A New Treatment For Improving The Use Of Dietary Sugar For Energy Purposes” (Nutravis S.r.l., priority 2014, published 2018):
Read-outs that look alike come from different tables or passages of the source.

Key:
[1] = tested on: myoblasts; conditions: myoblasts incubated in vitro with 100 nM ABA (Bruzzone et al. 2012); cited from earlier work
[2] = tested on: Male CD1 mice; experiment: Muscle performance in mice (spontaneous wheel running); assay type: in vivo, mouse; conditions: ABA 1 μg/Kg BW with glucose 1 g/Kg BW for 12 weeks
Experimental: Male CD1 mice (outbread) (8 per group) were administered glucose with the drinking water without (controls) or with the addition of synthetic ABA. The concentrations of glucose and of ABA in water were calculated considering the average daily volume drank by each mice so as to reach a dose of 1 g/Kg BW and 1 μg/Kg BW of ABA. After 12 weeks of treatment the mice (average weight 45.1 and 43.3 grams for the animals treated with glucose and glucose+ABA, respectively) were kept 12 hours in two separate cages, each equipped with a wheel connected to a digital odometer measuring the total distance traveled on the wheel and the time of rotation of the wheel. The tests were performed during the night time on animals with freely available food and water containing glucose alone (controls) or glucose+ABA. The reason for using male CD1 mice for this experiment is their natural predisposition to develop more muscle mass compared to females from the same strain.
Table 6. […] Male CD1mice (outbred) (8/group) with a mean weight of 45.1 and 43.3 g for animals treated with glucose and glucose+ABA, respectively, were kept for the same time (12 hours) in two cages, each containing a wheel connected to a digital cyclometer, capable of measuring the total distance travelled and the duration of rotation of the wheel. The tests (n=2 for each group of animals) were performed during the night hours, with ad libitum food and water, containing glucose (controls) or glucose+ABA.

[3] = tested on: db/db mice; conditions: cited from earlier work
[4] = Body weight gain induced by chronic high-dose glucose in mice; assay type: in vivo, mouse; conditions: female CD1 mice, ABA 1 μg/Kg BW with glucose 1 g/Kg BW daily in drinking water, 12 weeks
Experimental: Five, week-old female CD1 mice (outbread) (9 per group) were administered glucose in the drinking water, without (controls) or with the addition of synthetic ABA. To achieve the required daily dose of glucose (1 g/kg BW) and of ABA (1 μg/Kg BW) the daily volume of water drank by the animals used for the test was preliminary established. Based on this volume (5 ml/day), and taking into account an average weight of the mice of 30 grams, the water administered to the animals, contained 0,006 g/ml of glucose and 0,006 μg/ml ABA. The weight control was performed after 12 weeks of treatment on the two groups of animals fasted for 17 hours before measurement of the weight. The reason for using female CD1 for this test was that they show a natural predisposition to accumulation of adipose tissue that is not found, instead, in males of the same strain.
FIG. 8. Daily oral intake of synthetic ABA at the dose of 1 μg/Kg reduces the body weight increase induced by the chronic intake of high-dose glucose (1g/Kg) in mice. Five-week old female CD1 mice (outbred) (9/group) received daily, in the drinking water, a glucose solution without (controls) or with synthetic ABA (see Materials and Methods for details). Body weight was determined after 12 weeks of treatment, and both groups of animals were fasted for 17 hours before measurement. […]

[5] = Stability tests of ABA at high temperatures (autoclave sterilization); assay type: physicochemical; conditions: autoclave sterilization at 121° C. for 8 min; HPLC-MS
Experimental: Experiments were performed to evaluate the heat stability of synthetic ABA or of ABA naturally present in aqueous and supercritical extracts. Samples containing known nanomolar concentrations of ABA (either synthetic or present in the extracts) were divided into two aliquots of equal volume and subjected or not (control) to autoclave sterilization at 121° C. for 8 min (the condition generally applied to the sterilization of food). After sterilization, 100 μl of each aliquot and its un-sterilized control were injected into an analytical Hypercarb column (Thermo Scientific, Pittsburgh, Pa.) (4.6×100 mm; particle size 5 μm). Solvent A was water containing 0.1% formic acid (FOA), solvent B was acetonitrile containing 0.1% FOA and solvent flux was 0.8 ml/min. The linear elution gradient was from 100% A to 100% B in 30 min. Fractions were taken every 30 sec, lyophilized, re-dissolved in 11 μl of a solution composed of 90% solvent A and 10% solvent B of the HPLC-coupled mass spectrometry analysis and [^2H6]-ABA was added as an internal standard. Samples were analyzed as previously described under “Determination of the ABA content in several foods”. The amount of ABA present in the aliquots subjected to sterilization was unchanged compared with that measured in the control samples.

[6] = tested on: Wistar male rats
Experimental: For the determination of blood glucose in rats, blood samples were taken from the tail vein of anesthetized animals and blood glucose was measured with a glucometer (Bayer). The quantification of insulin on the same animals, was carried out by sampling blood from the orbital sinus, immediately adding heparin and subjecting each sample to centrifugation at 22000×g for 30 sec: aliquots of plasma were stored at −20° C. The plasma insulin concentration was determined with an ELISA kit (Bertin-Pharma, Montigny, France).
Wistar male rats (obtained from Charles River, Milan, Italy), age between 9 and 13 weeks, were divided into two groups (12 animals per group) and fasted for 17 hours. After mild sedation with diazepam, 1 g/kg BW of glucose was administered by gavage in about 300-400 μl of aqueous solution, containing or not 1 μg/Kg BW of synthetic ABA, or the same dose of ABA or ABA-GE endogenously present in a supercritical or water plant extract. Immediately after gavage, rats were anesthetized with xylazine and ketamine. Blood glucose was measured with a glucometer on blood taken from the tail vein immediately before gavage (time zero) and 15, 30 and 60 minutes after gavage. Each measurement was performed in duplicate.
Two groups of male Wistar rats (12 animals per group), fasted for 17 hours, were subjected to an OGTT (1 g/Kg BW glucose) , without or with 1 μg/Kg BW of synthetic ABA. Glycemia was measured with a glucometer in duplicate on blood taken from the tail vein at baseline (immediately before gavage) and at the indicated times after gavage. Insulinemia was measured by ELISA, in duplicate on plasma samples. Results are mean ±SD.

[7] = In vivo hydrolysis of orally given ABA-GE to ABA, plasma HPLC-MS; parameters: species or system rat; conditions: 30 and 60 min after gavage of synthetic ABA-GE, Wistar rats n=3
Text: Wistar rats (n=3) were given an amount of synthetic ABA-GE by gavage in order to evaluate its in vivo hydrolysis, resulting in the release of ABA. […] Therefore, the ABA-GE present in the aqueous apricot extract contributes to the effective dose of ABA taken with the extract, as it can be hydrolyzed to yield free ABA.
FIG. 4: HPLC-MS analysis of representative plasma samples from a rat subjected to gavage with a solution containing synthetic ABA-GE. […] The amount of ABA released by hydrolysis from its conjugated form ABA-GE at different times (30 and 60 min after gavage) was measured by HPLC-MS. The coefficient of absorbance of ABA-GE at 254 nm, used for chromatographic analysis, is approximately 10 times lower than that of free ABA. This explains the different area of their respective chromatographic peaks.

[8] = synthetic ABA 1 μg/Kg BW during OGTT
[9] = synthetic ABA 1 μg/Kg BW with glucose 1 g/Kg BW by gavage

For `CC1=CC(=O)CC(C)(C)C1(O)/C=C/C(C)=C\C(=O)O` (racemic) [ABA, 2-cis, 4-trans-abscisic acid], the glucose transport [1] is listed as “increased glucose transport”, the “maximal speed recorded compared with that of the controls” value [2] is listed as 3.2 times and the “Time of use” value ([2]; wheel available 12 hours) is listed as 105 min. The “Total distance covered (m)” value ([2]; wheel available 12 hours) was 2693 m, the “minimum effective dose improving glucose tolerance” value ([3]; dietary intake, mice diabetic by leptin receptor mutation (Guri et al., 2007)) was 100 mg/kg and the “weight increase compared with the controls” value ([3]; mice chronically treated with ABA at 100 mg/Kg BW (literature)) was “not dissimilar compared with the controls”. The “weight increase compared to the controls” value [4] was “significantly lower weight increase”, the “amount of ABA after sterilization compared with control samples” value [5] was “unchanged” and the “glycemic profile compared to the controls” value ([6]; ABA 95 μg/Kg BW during OGTT) was “reduced compared to the controls”. For the same compound, the “glycemic profile compared to the controls” value ([6]; ABA 100 mg/Kg BW during OGTT) was “reduced compared to the controls”, the “insulin AUC compared to control rats” value ([6]; ABA 100 mg/Kg BW during OGTT) was “comparable to that of control rats” and the “insulin response to the glucose load” value ([6]; ABA 1 and up to 95 μg/Kg BW) was “significant decrease”. For the same compound, the “plasma concentration corresponding to the dose” value ([6]; male, Wistar, rat, in vivo) was “less than 10 nM”, the “mean level of plasmatic insulin compared to controls” value [6, 8] was “significantly lower” and the “reduction of insulin AUC compared to controls” value [6, 8] was “about 15 times”. The “AUC of glycemia compared to the controls” value [6, 9] was “significantly lower AUC of glycemia” and the “glycemic profile compared to the controls” value [6, 9] was “significantly reduced glycemic profile”.
In the case of `CC1=CC(=O)CC(C)(C)[C@@]1(O)/C=C/C(C)=C\C(=O)O[C@@H]1O[C@H](CO)[C@@H](O)[C@H](O)[C@H]1O` [ABA-GE, ABA-glucosyl ester], the “chromatographic peak of free ABA in plasma compared to 0 min” value [7] is reported as “marked increase”.
